Patent US20030104024A1, “Urea and nitrogen based compounds as feeding stimulants/aggregants and masking agents of unpalatable chemicals for subterranean termites” (priority 2000, published 2003)

Experiments:
C. formosanus = conditions: baits containing the termiticide; cited from earlier work
Formosan termite = experiment: choice test of the colorant (feeding deterrence); format: in vivo, Coptotermes formosanus; conditions: neutral red at 1000 ppm in bait matrix
Method: (§1) The basic formulation of the matrix was prepared the same day that the experiment was set up, as reported by Rojas et al. (U.S. patent application Ser. Nos. 09/294,499 and 09/625,940, ibid). The colorant used was neutral red (Product number 72210, Fluka Chemical Corp., Milwaukee, Wis.) at 1000 ppm.

[1] = system: Formosan subterranean termites; experiment: two choice feeding experiment: blank bait matrix vs. matrix with neutral red and urea; format: in vivo, Coptotermes formosanus; conditions: urea 0-1280 ppm added to matrix with 1,000 ppm neutral red; groups of 300 termites; 30 d; FIG. 1
Method: as §1
Under a laminar flow hood, the sterile cellulose was weighed using a Oahus portable plus scale (Fisher Scientific, Pittsburgh, Pa.) into a sterile 600 ml glass beaker. The colorant was weighed using a Mettler Toledo balance (PB303, Fisher Scientific, Pittsburgh, Pa.) and added to the pre-weighed cellulose. The cellulose with the colorant were homogenized using a sterile stainless steel spatula.
The sterile liquid mixture was measured into a 50 ml sterile screw cap conical tube (Product number 62.547.004 PP, Sarstedt, Inc., Newton, N.C.) and the urea was added at each of the following doses: 0, 10, 20, 40, 80, 160, 320, 640, and 1280 ppm; then it was added to the colored cellulose to a 7:3 ratio, (liquid-urea:colored-cellulose) and mixed to homogenize. […]
One treatment dish and one control dish were placed in the center of the top dish, taking care that the holes were facing each other and at least 1 cm apart. […] Matrix consumption was measured 30 d after by removing the left over bait matrix from the dishes and weighed it using a Sartorius balance (BP 211D, VWR Scientific, Atlanta, Ga.). […]

SMILES	suppression of large colonies (C. formosanus)	further results
O=C(NC(=O)c1c(F)cccc1F)Nc1ccc(Cl)cc1 [diflubenzuron]	particularly effective	
O=C(NC(=O)c1c(F)cccc1F)Nc1cc(Cl)c(OC(F)(F)C(F)F)c(Cl)c1 [hexaflumuron]	particularly effective	
Cc1cc2nc3ccc(N(C)C)cc3nc2cc1N.Cl [neutral red]		feeding deterrence to the Formosan termite (Formosan termite): moderately deterrent
NC(N)=O [urea]		effect of urea on feeding deterrence induced by the colorant (consumption difference, control minus colored matrix) [1]: significantly affected the feeding deterrence induced by the colorant
